{"source": "paper PMC9231138", "about": "“Dihydrotanshinone I Enhances Cell Adhesion and Inhibits Cell Migration in Osteosarcoma U−2 OS Cells through CD44 and Chemokine Signaling” (Molecules, 2022)", "key": {"[1]": {"tested_on": "phospho−FOXO1", "experiment": "Western blot phospho−FOXO1", "type": "cell-based, human", "experimental": "Figure 3 DS−1 inhibited the expression of transcription factor FOXO1 in U−2 OS cells. (A) U−2 OS cells were treated with DS−1 at 0, 3.125, 6.25, and 12.5 μM, and the changes in FOXO1 were analyzed by immunofluorescent staining, followed by confocal microscopy imaging. (B) U−2OS cells were treated with DS−1 at 0, 3.125, 6.25, and 12.5 μM, and FOXO1 and pFOXO1 were analyzed by Western blot; the changes were presented in histograms (C,D). (E) U−2 OS cells were treated with DS−1 at 6.25 μM for 0, 12, 24, and 48 h, then FOXO1 was analyzed by Western blot, and the changes are presented in the histogram (F). (G) The pFOXO1/FOXO1 value is shown in the histogram. […]\nSample preparation: U−2 OS cells seeded in 10 cm Petri dishes were collected and washed with ice-cold PBS and RIPA lysis buffer with PMAF; phosphatase inhibitor was added, and the tubes were placed on ice for 30 min and vortexed for 30 s at intervals of 10 min. […] The protein samples were placed on ice, and the concentration of each protein sample was measured by the BCA kit (Thermo). […]\nAntibody staining: We blocked the membrane for 1 h at room temperature using 5% blocking solution, then incubated the membrane with appropriate dilutions of the primary antibody in the blocking solution overnight at 4 °C. […] Images were acquired using darkroom development techniques for chemiluminescence and analyzed by Image J."}, "[2]": {"tested_on": "HeLa cells", "experiment": "MTT cell proliferation assay, HeLa cells", "type": "cell-based", "conditions": "Homo sapiens, 24 h, read-out: IC50 HeLa cells (24 h)", "experimental": "The effects of tanshinones (DS−1 to DS−5) on the proliferation of U−2 OS cells, HeLa cells, and NRK−49F cells were measured by the classical MTT method with minor modifications as follows. Cells were seeded at 5000 per well in 96-well plates, with each group being repeated in 5 wells, and were incubated for 12 h. DS−1 to DS−5 were added at gradient concentrations, then incubated for 24 and 48 h, respectively. Then, 20 μL MTT solution (solved in PBS, 5 mg/mL) was added to every well, and the cells were further incubated at 37 °C for 4 h until a purple precipitate was visible. The plate was centrifuged at 1000 rpm for 1 min; the supernatant was suctioned, and 150 μL of DMSO was added per well; the plate was shaken on a shaker protected from light for 15 min. We placed the plate in an enzyme marker and measured the absorbance values at a 490 nm wavelength."}, "[3]": {"tested_on": "NRK−49F cells", "experiment": "Cell adhesion against trypsin digestion, NRK−49F cells", "type": "cell-based, rat", "conditions": "DS-1 6.25, 12.5 μM for 24 h"}, "[4]": {"tested_on": "U−2 OS cells", "experiment": "RNA-seq differential gene expression", "type": "cell-based, human", "conditions": "DS−1 6.25 µM, 24 h", "experimental": "Sample preparation: U−2 OS cells were seeded in a 10 cm culture dish, and we cultured them to the logarithmic growth phase, suctioned the previous medium, and added new medium with DS−1 at 0 and 6.25 μM; each group was repeated two times. After 24 h of culture, the dish was washed with PBS reagent 3 times. One milliliter of TRIzol reagent was added to every dish for cell lysate and then collected in centrifuge tubes.\nTranscriptome sequencing and analysis were carried out by Novogene Bioinformatics Technology Co., Ltd. (Beijing, China).\nRaw data in the fastq format were firstly processed through in-house Perl scripts. In this step, clean data were obtained by removing reads containing adapter or containing ploy-N and low-quality reads from raw data. […]\nReference genome and gene model annotation files were downloaded from the genome website directly. The index of the reference genome was built using Hisat2 v2.0.5 (https://github.com/DaehwanKimLab/hisat2, accessed on 4 May 2022), and paired-end clean reads were aligned to the reference genome using Hisat2 v2.0.5. FeatureCounts v1.5.0-p3 (https://github.com/byee4/featureCounts, accessed on 4 May 2022) was used to count the reads numbers mapped to each gene. Then the Fragments PerKilobase of transcript sequence per Millions […] (FPKMs) of each gene were calculated based on the length of the gene and reads’ count mapped to this gene. […]"}, "[5]": {"tested_on": "cyclin D1", "experiment": "RT-PCR cyclin D1 mRNA in U−2 OS cells", "type": "cell-based, human", "conditions": "24 h", "experimental": "(§1) Total RNA within cells was extracted by the RNAeasy™ Animal Long RNA Isolation Kit with Spin Column (Shanghai, Beyotime); the concentrations and OD260/OD280 and OD230/OD260 values were measured by NanoDrop. Five micrograms of RNA was used for reverse transcription; each sample was diluted to 16 μL, and 4 μL of synthesized premix solution (5×) was added, then the mixtures were placed in a 42 °C water bath for 10 min, then an 80 °C water bath for 10 min to deactivate reverse transcriptase. After reverse transcription, each sample was diluted to 140 μL. PCR amplification was carried out by the ABI700 real-time PCR system, and the amplification reaction was detected with a SYBR probe. After PCR, actin and GAPDH were used as internal references, and the relative standard curve method (2^−ΔΔcT) determined the relative expression of mRNA."}, "[6]": {"tested_on": "IL6", "experiment": "RT-PCR IL6 mRNA in U−2 OS cells", "type": "cell-based, human", "conditions": "24 h", "experimental": "as §1"}}, "data": [{"compound": "Cc1cccc2c3c(ccc12)C1=C(C(=O)C3=O)[C@@H](C)CO1", "note": "[DS−1, 15,16-Dihydrotanshinone I]", "values": [{"measurement": "phosphorylation of FOXO1 (pFOXO1/FOXO1 value)", "setting": "[1]; with increasing concentration of DS−1, Image J", "result": "increased"}, {"measurement": "phospho−FOXO1", "setting": "[1]; with the concentration of DS−1 (3.125, 6.25, 12.5 μM) and the time of treatment (6.25 μM, 12, 24, 48 h)", "result": "reduced"}, {"measurement": "IC50", "setting": "[2]", "result": "15.5 ± 0.98", "unit": "µM"}, {"measurement": "cell adhesion on the cell culture plate against trypsin digestion", "setting": "[3]", "result": "stronger cell adhesion"}, {"measurement": "number of genes downregulated (of 23,517 detected)", "setting": "[4]", "result": 4643, "unit": "genes"}, {"measurement": "number of genes upregulated (of 23,517 detected)", "setting": "[4]", "result": 4104, "unit": "genes"}, {"measurement": "cyclin D1 mRNA, fold of the control group", "setting": "[5]; first of three DS−1 doses (2.5 µM per Fig. 5 legend)", "result": "0.27 ± 0.06", "unit": "fold"}, {"measurement": "cyclin D1 mRNA, fold of the control group", "setting": "[5]; second of three DS−1 doses (5.0 µM per Fig. 5 legend)", "result": "0.29 ± 0.06", "unit": "fold"}, {"measurement": "cyclin D1 mRNA, fold of the control group", "setting": "[5]; third of three DS−1 doses (7.5 µM per Fig. 5 legend)", "result": "0.20 ± 0.04", "unit": "fold"}, {"measurement": "IL6 mRNA, fold", "setting": "[6]; DS−1 2.5 µM", "result": "0.81 ± 0.09", "unit": "fold"}, {"measurement": "IL6 mRNA, fold", "setting": "[6]; DS−1 5.0 µM", "result": "0.51 ± 0.07", "unit": "fold"}, {"measurement": "IL6 mRNA, fold", "setting": "[6]; DS−1 7.5 µM", "result": "0.42 ± 0.12", "unit": "fold"}]}]}
